Source: US20240226101A1, “PYRIMIDINYLAMINOBENZENES FOR LUNG CANCER TREATMENT” (Suzhou Puhe BioPharma Co., LTD., priority 2021, published 2024)
Where “and” joins values, the source holds several entries; their conditions need not be identical. Equal entries are not always repeated.

Assays:
EGFR V769_D770insGE = EGFR V769_D770insGE (Homo sapiens, UniProt P00533, INS769GE); test: HTFR KINEASE-TK kit (Cisbio) inhibition of EGFR mutant V769_D770insGE; assay type: biochemical
Protocol: (§1) Compound A13 was tested against EGFR mutants: (i) three exon 20 insertions: […], D770_N771insNPG, and A763_Y764insFQEA; and (ii) one point mutation: L861Q; using an HTFR KINEASE-TK kit (Cisbio) according to the manufacturer's protocol.

[1] = biological target: T1, EGFR A763_Y764insFQEA in Ba/F3 cell lines (Homo sapiens, UniProt P00533, INS763FQEA); test: […]-GLO cell viability assay, Ba/F3 cells with EGFR A763_Y764insFQEA; assay type: cell-based
T1 construct: expressed in transfected cells; host or cells: Ba/F3

[2] = biological target: T2, EGFR D770_N771insSVD in Ba/F3 cell lines (Homo sapiens, UniProt P00533, INS770SVD); test: […]-GLO cell viability assay, Ba/F3 cells with EGFR D770_N771insSVD; assay type: cell-based
T2 construct: expressed in transfected cells; host or cells: Ba/F3

[3] = biological target: T3, EGFR H773_V774insNPH in Ba/F3 cell lines (Homo sapiens, UniProt P00533, INS773NPH); test: […]-GLO cell viability assay, Ba/F3 cells with EGFR H773_V774insNPH; assay type: cell-based
T3 construct: expressed in transfected cells; host or cells: Ba/F3

[4] = biological target: T4, EGFR L861Q in Ba/F3 cell lines (Homo sapiens, UniProt P00533, L861Q); test: […]-GLO cell viability assay, Ba/F3 cells with EGFR L861Q; assay type: cell-based
T4 construct: expressed in transfected cells; host or cells: Ba/F3

[5] = Pharmacokinetics in the xenograft mouse model, single oral dose; assay type: in vivo, Balb/c Mice; conditions: 80 mg/kg single oral dose
Protocol: Using the same xenograft mouse model, the pharmacokinetic (PK) parameters of compound A13 were determined at 80 mg/kg with a single oral dose. For each mouse, blood samples were collected at 0, 1, 2, 4, 8, 16, and 24 h after dosing.

[6] = biological target: T5, EGFR V769_D770insASV in Ba/F3 cell lines (Homo sapiens, UniProt P00533, INS769ASV); test: […]-GLO cell viability assay, Ba/F3 cells with EGFR V769_D770insASV; assay type: cell-based
T5 construct: expressed in transfected cells; host or cells: Ba/F3

EGFR A763_Y764insFQEA = EGFR A763_Y764insFQEA (Homo sapiens, UniProt P00533, INS763FQEA); test: HTFR KINEASE-TK kit (Cisbio) inhibition of EGFR mutant A763_Y764insFQEA; assay type: biochemical
Protocol: as §1

[7] = biological target: T6, EGFR G719S in Ba/F3 cell lines (Homo sapiens, UniProt P00533, G719S); test: […]-GLO cell viability assay, Ba/F3 cells with EGFR G719S; assay type: cell-based
T6 construct: expressed in transfected cells; host or cells: Ba/F3

EGFR L861Q = EGFR L861Q (Homo sapiens, UniProt P00533, L861Q); test: HTFR KINEASE-TK kit (Cisbio) inhibition of EGFR mutant L861Q; assay type: biochemical
Protocol: as §1

[8] = tested on: LU0387 lung cancer PDX model; test: Antitumor activity in subcutaneous LU0387 lung cancer PDX xenograft mouse model; assay type: in vivo; conditions: for TV (mm^3) on Day 0: Day 0 (randomization, baseline); for TV (mm^3) on Day 0 / RTV (relative tumor volume) / TV (mm^3) on Day 21: benzoate salt
Protocol: Compound A13 as a single agent was evaluated for lung cancer treatment in a subcutaneous LU0387 lung cancer PDX model using female Balb/c nude mice. Tumor fragments from stock mice were harvested for inoculation into mice. Each mouse was inoculated subcutaneously in the right rear flank with a PDX model LU0387 tumor fragment (2-3 mm in diameter) for tumor development.
The randomization started when the mean tumor size reached approximately 517.37 mm^3. Twenty-four mice were randomly allocated to 8 study groups, with 3 mice per group. The date of randomization was designated as Day 0.
After tumor inoculation, the mice were checked daily for morbidity and mortality. The mice were checked for any effects of tumor growth and treatments on behavior such as mobility, food and water consumption, body weight gain/loss, eye/hair matting, and any abnormalities. Mortality and observed clinical signs were recorded for each individual mouse in detail.
Tumor volumes (TV) were measured twice per week after randomization using a caliper and the volume was calculated using the formula: V=(L×W×W)/2, where V is tumor volume, L is tumor length (the longest tumor dimension), and W is tumor width (the longest tumor dimension perpendicular to L).
Compound A13 was administered orally as a benzoate salt in a citrate/phosphate buffer at pH 4.0 at 20, 40, and 80 mg/kg once daily for 21 days. The results are summarized in Table 3, where RTV represents relative tumor volume.

EGFR D770_N771insNPG = EGFR D770_N771insNPG (Homo sapiens, UniProt P00533, INS770NPG); test: HTFR KINEASE-TK kit (Cisbio) inhibition of EGFR mutant D770_N771insNPG; assay type: biochemical
Protocol: as §1

[9] = 20 mg/kg orally once daily for 21 days
[10] = 40 mg/kg orally once daily for 21 days

T3 sequence (P00533 with tags, fused parts or gaps INS773NPH): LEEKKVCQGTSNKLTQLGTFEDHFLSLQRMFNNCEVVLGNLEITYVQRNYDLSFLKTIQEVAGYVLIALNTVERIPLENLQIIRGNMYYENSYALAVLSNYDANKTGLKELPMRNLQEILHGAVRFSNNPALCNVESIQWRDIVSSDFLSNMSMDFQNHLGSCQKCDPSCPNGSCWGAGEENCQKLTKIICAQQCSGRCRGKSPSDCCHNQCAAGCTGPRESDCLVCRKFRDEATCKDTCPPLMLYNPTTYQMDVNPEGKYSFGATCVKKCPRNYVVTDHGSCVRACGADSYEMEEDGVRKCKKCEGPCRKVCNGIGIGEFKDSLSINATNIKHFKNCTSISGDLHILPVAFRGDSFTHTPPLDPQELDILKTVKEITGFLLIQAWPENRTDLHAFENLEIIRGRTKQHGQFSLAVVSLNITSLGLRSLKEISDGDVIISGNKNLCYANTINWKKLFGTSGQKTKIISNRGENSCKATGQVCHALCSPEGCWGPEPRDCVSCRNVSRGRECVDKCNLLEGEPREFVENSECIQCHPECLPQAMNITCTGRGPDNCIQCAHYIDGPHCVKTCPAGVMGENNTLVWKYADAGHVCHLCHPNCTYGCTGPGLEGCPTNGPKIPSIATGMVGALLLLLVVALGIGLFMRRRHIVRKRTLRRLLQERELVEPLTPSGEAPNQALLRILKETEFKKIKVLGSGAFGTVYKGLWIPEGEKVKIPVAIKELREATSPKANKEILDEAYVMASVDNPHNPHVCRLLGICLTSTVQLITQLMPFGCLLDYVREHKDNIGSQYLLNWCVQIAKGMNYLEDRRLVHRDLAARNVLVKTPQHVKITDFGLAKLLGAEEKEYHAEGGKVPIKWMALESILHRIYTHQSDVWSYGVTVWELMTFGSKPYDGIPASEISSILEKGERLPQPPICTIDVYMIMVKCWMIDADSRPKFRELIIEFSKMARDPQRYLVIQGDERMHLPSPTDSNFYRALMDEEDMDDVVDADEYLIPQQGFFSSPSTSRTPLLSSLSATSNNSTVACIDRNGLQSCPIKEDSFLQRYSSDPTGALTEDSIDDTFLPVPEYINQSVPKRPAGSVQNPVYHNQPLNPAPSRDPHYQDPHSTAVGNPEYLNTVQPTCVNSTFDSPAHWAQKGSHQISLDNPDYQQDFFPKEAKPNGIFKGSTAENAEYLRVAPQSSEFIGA
T2 sequence (P00533 with tags, fused parts or gaps INS770SVD): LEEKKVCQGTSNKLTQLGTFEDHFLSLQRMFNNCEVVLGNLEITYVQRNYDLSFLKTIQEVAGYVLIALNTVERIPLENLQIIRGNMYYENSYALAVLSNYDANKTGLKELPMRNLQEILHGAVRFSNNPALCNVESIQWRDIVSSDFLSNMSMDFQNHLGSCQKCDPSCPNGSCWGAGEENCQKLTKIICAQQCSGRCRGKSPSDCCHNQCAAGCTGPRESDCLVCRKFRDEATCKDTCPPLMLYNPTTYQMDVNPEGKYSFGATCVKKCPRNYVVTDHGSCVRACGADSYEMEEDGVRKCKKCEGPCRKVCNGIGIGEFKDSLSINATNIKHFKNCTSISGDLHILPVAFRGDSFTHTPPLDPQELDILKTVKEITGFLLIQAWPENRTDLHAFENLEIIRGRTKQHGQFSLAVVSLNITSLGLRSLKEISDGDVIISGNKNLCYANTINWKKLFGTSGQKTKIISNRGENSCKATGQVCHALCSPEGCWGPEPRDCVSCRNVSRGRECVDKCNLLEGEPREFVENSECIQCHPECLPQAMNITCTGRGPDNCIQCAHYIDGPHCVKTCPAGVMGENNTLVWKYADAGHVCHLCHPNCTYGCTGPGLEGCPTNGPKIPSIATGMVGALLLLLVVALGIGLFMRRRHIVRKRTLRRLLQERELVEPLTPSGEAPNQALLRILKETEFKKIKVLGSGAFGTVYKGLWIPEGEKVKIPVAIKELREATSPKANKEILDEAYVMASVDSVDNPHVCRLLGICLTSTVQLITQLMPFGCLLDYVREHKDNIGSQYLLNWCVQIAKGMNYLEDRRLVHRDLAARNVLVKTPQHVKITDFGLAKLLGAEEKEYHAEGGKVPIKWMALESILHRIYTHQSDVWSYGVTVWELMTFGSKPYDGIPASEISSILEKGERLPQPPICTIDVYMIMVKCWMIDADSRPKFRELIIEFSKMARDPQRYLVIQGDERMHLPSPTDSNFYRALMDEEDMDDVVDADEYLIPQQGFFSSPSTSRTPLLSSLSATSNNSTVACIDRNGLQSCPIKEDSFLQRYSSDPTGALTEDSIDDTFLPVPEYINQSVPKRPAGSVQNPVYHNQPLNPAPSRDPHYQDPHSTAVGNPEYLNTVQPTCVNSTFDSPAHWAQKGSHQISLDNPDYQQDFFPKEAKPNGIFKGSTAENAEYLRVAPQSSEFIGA
T5 sequence (P00533 with tags, fused parts or gaps INS769ASV): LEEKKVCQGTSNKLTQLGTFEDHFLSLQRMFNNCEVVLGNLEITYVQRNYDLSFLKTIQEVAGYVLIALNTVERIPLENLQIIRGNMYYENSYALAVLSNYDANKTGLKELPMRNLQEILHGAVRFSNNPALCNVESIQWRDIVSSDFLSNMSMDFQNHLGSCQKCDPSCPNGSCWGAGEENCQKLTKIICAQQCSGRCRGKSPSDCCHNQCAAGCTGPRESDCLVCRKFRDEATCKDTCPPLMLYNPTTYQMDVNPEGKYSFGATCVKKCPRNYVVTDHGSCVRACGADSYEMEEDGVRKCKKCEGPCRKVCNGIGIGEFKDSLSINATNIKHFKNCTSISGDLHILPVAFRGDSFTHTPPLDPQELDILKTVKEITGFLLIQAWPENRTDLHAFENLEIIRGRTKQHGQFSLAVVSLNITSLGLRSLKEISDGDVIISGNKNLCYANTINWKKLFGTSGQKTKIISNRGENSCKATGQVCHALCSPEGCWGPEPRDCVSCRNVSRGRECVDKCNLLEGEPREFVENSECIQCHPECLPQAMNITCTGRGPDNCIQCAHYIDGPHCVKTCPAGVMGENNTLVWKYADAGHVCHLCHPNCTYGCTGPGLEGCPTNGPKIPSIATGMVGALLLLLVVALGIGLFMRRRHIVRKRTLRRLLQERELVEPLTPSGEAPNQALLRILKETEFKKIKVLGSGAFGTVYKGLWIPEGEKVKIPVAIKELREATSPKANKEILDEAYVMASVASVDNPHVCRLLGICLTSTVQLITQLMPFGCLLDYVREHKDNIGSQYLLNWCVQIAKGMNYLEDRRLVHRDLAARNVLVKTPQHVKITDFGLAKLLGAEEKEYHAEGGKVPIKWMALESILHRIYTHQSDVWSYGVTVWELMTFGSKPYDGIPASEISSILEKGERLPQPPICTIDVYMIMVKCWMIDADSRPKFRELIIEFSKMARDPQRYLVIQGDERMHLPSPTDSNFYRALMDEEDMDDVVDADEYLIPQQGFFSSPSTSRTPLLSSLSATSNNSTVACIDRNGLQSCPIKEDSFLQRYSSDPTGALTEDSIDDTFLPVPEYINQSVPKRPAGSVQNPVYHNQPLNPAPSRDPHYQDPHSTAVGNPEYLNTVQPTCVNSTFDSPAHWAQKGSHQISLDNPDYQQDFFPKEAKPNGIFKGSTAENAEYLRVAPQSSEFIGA
Sequence of EGFR V769_D770insGE (P00533 with tags, fused parts or gaps INS769GE): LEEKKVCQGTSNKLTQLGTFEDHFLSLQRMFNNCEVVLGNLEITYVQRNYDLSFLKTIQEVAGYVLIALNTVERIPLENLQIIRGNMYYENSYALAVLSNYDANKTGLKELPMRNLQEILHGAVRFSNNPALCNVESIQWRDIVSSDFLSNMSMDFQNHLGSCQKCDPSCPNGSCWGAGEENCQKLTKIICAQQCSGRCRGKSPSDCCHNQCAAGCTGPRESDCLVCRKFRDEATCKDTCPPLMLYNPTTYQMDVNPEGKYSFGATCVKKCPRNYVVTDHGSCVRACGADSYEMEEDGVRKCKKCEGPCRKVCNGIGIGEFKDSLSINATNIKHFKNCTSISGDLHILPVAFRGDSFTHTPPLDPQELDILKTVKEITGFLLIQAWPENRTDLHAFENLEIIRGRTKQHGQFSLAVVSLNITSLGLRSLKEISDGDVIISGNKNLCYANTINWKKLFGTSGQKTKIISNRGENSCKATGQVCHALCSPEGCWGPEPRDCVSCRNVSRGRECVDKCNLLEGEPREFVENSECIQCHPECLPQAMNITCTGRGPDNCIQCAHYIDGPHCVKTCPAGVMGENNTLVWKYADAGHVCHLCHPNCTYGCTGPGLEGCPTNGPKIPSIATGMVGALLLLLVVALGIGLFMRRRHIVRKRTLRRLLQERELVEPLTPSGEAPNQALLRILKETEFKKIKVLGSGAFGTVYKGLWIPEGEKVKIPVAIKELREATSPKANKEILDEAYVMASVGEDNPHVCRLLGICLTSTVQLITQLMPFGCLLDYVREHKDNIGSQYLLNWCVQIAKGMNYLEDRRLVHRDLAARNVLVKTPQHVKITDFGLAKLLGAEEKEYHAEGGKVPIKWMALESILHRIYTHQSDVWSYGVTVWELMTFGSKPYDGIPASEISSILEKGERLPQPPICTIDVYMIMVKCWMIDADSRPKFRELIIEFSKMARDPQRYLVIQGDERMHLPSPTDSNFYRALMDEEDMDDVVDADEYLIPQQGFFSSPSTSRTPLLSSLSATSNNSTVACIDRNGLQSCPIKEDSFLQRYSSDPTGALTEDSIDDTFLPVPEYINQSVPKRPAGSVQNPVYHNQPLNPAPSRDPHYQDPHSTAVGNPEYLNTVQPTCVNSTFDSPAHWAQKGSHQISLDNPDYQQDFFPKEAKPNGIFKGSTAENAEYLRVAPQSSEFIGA

C=CC(=O)Nc1cc(Nc2nccc(-c3cnc4c(C)cccn34)n2)c(OC)cc1N(C)CCN(C)C [A13, N-(2-((2-(dimethylamino)ethyl)(methyl)amino)-4-methoxy-5-((4-(8-methylimidazo[1,2-a]-pyridin-3-yl)pyrimidin-2-yl)amino)phenyl)acrylamide]
IC50 (EGFR V769_D770insGE): 0.62 nM
IC50 [1]: 4 nM
IC50 [2]: 29 nM
IC50 [3]: 62 nM
IC50 [4]: 5 nM
CLz [5]: 353 ± 30 mL/min/kg
Vz [5]: 52 ± 17 L/kg
Cmax ([5]; Balb/c, mouse, blood): 1380 ± 432 ng/mL
half-life ([5]; Balb/c, mouse, blood): 1.7 ± 0.6 h
AUC(0-t) ([5]; Balb/c, mouse, blood, 0-24 h): 3600 ± 273 ng·h/mL
IC50 [6]: 73 nM
IC50 (EGFR A763_Y764insFQEA): 0.73 nM
IC50 [7]: 2 nM
IC50 (EGFR L861Q): 0.36 nM
TV (mm^3) on Day 0 ([8]; 20 mg/kg group): 86 ± 6 mm^3
RTV (relative tumor volume) [8, 9]: 517 ± 61
TV (mm^3) on Day 21 [8, 9]: 602 ± 67 mm^3
TV (mm^3) on Day 0 ([8]; 40 mg/kg group): 89 ± 6 mm^3
RTV (relative tumor volume) [8, 10]: 281
TV (mm^3) on Day 21 [8, 10]: 370 ± 31 mm^3
TGI (tumor growth inhibition) ([8]; 40 mg/kg orally once daily for 21 days, vs. vehicle control (P=0.016)): 61%
TV (mm^3) on Day 0 ([8]; 80 mg/kg group): 86 mm^3 and 86 ± 6 mm^3
TV (mm^3) on Day 21 ([8]; 80 mg/kg orally once daily for 21 days): 36 mm^3 and 36 ± 9 mm^3
TGI (tumor growth inhibition) ([8]; 80 mg/kg orally once daily for 21 days, vs. vehicle control (P<0.001)): 107%
Tolerability ([8]; 20, 40, and 80 mg/kg orally once daily for 21 days in tumor-bearing mice): well tolerated
IC50 (EGFR D770_N771insNPG): 0.42 nM
